Source: patent US4771046A, “Carbapenem derivatives” (Sankyo Company, Limited, priority 1985, dated 1988)
Values after ≈ are worked out from the molar mass of the structure shown.

Tests used:
Escherichia coli NIHJ = experiment: Minimum inhibitory concentration, agar plate dilution method; format: cell-based
Description: (§1) Table 2 sets out the activities of six of the compounds of the present invention against various bacteria, in terms of their minimal inhibitory concentrations (μg/ml). These compounds are identified by the same numbers as used in Table 1 above.
(§2) Minimum Inhibitory Concentrations (μg/ml)
(§3) In the compounds used in Table 2, compounds 1, 15 and 27 have the (5R,6S) configuration, and compounds 2, 16 and 28 have the (1R,5S,6S) configuration. In all six of the compounds, the configuration of the hydroxy group in the side-chain at position 6 is (1R).

[1] = test system: Staphylococcus aureus 209P; experiment: as above; format: cell-based
Description: as §1, §2, §3

[2] = test system: Klebsiella pneumoniae 846; experiment: as above; format: cell-based
Description: as §1, §2, §3

Proteus vulgaris 1420 = experiment: as above; format: cell-based
Description: as §1, §2, §3

Staphylococcus aureus 56 = experiment: as above; format: cell-based
Description: as §1, §2, §3

[3] = test system: Klebsiella pneumoniae 806; experiment: as above; format: cell-based
Description: as §1, §2, §3

Serratia marcescens 1184 = experiment: as above; format: cell-based
Description: as §1, §2, §3

Escherichia coli 609 = experiment: as above; format: cell-based
Description: as §1, §2, §3

Salmonella enteritidis = experiment: as above; format: cell-based; details: Salmonella enterica
Description: as §1, §2, §3

Enterobacter cloacae 963 = experiment: as above; format: cell-based
Description: as §1, §2, §3

mice = experiment: Toxicity in mice (survival); format: in vivo
[4] = cited from earlier work
dehydropeptidase I = details: in vivo in mammals; cited from earlier work

| SMILES | MIC (Escherichia coli NIHJ) | MIC [1] | MIC [2] | MIC (Proteus vulgaris 1420) | MIC (Staphylococcus aureus 56) | MIC [3] | MIC (Serratia marcescens 1184) | MIC (Escherichia coli 609) | MIC (Salmonella enteritidis) | MIC (Enterobacter cloacae 963) | dosage at which mice survive (mice; mice) | dosage at which mice survive (mice; mouse, in vivo) | chemical stability in the human body [4] | inactivation by dehydropeptidase I (dehydropeptidase I) |
| --- | --- | --- | --- | --- | --- | --- | --- | --- | --- | --- | --- | --- | --- | --- |
| C[C@@H](O)[C@H]1C(=O)N2C(C(=O)O)=C(SCC(=N)N3CCNC(=O)C3)C[C@H]12 [Compound No. 1, (5R,6S)-2-[2-(3-Oxopiperazin-1-yl)-2-iminoethylthio]-6-[(1R)-1-hydroxyethyl]-1-carbapen-2-em-3-carboxylic acid] | 0.1 µg/mL (≈ 0.271 µM) | ≤ 0.01 µg/mL | 0.1 µg/mL (≈ 0.271 µM) | 1.5 µg/mL (≈ 4.07 µM) | 0.05 µg/mL (≈ 0.136 µM) | 0.2 µg/mL (≈ 0.543 µM) | 0.2 µg/mL (≈ 0.543 µM) | 0.4 µg/mL (≈ 1.09 µM) | 0.1 µg/mL (≈ 0.271 µM) | 0.8 µg/mL (≈ 2.17 µM) | – | – | – | – |
| C[C@@H](O)[C@H]1C(=O)N2C(C(=O)O)=C(SCC(=N)N3CCNC(=O)C3)[C@H](C)[C@H]12 [Compound No. 2, (1R,5S,6S)-2-[2-(3-Oxopiperazin-1-yl)-2-iminoethylthio]-6-[(1R)-1-hydroxyethyl]-1-methyl-1-carbapen-2-em-3-carboxylic acid] | 0.02 µg/mL (≈ 0.0523 µM) | ≤ 0.01 µg/mL | 0.05 µg/mL (≈ 0.131 µM) | 0.4 µg/mL (≈ 1.05 µM) | 0.05 µg/mL (≈ 0.131 µM) | 0.02 µg/mL (≈ 0.0523 µM) | 0.1 µg/mL (≈ 0.261 µM) | 0.05 µg/mL (≈ 0.131 µM) | 0.05 µg/mL (≈ 0.131 µM) | 0.4 µg/mL (≈ 1.05 µM) | – | – | – | – |
| C[C@@H](O)[C@H]1C(=O)N2C(C(=O)O)=C(SCC(=N)N3CCN(C)C(=O)C3)C[C@H]12 [Compound No. 3, (5R,6S)-2-[2-(4-Methyl-3-oxopiperazin-1-yl)-2-iminoethylthio]-6-[(1R)-1-hydroxethyl]-1-carbapen-2-em-3-carboxylic acid] | – | – | – | – | – | – | – | – | – | – | above 2,000 mg/kg | – | – | – |
| C[C@@H](O)[C@H]1C(=O)N2C(C(=O)O)=C(SCC(=N)N3CC[C@@H](OC(N)=O)C3)C[C@H]12 [Compound No. 15, (5R,6S)-2-{2-[(3R)-3-Carbamoyloxypyrrolidin-1-yl]-2-iminoethylthio}-6-[(1R)-1-hydroxyethyl]-1-carbapen-2-em-3-carboxylic acid] | 0.1 µg/mL (≈ 0.251 µM) | ≤ 0.01 µg/mL | 0.05 µg/mL (≈ 0.125 µM) | 1.5 µg/mL (≈ 3.76 µM) | 0.02 µg/mL (≈ 0.0502 µM) | 0.1 µg/mL (≈ 0.251 µM) | 0.1 µg/mL (≈ 0.251 µM) | 0.1 µg/mL (≈ 0.251 µM) | – | 1.5 µg/mL (≈ 3.76 µM) | above 2,000 mg/kg | – | – | – |
| C[C@@H](O)[C@H]1C(=O)N2C(C(=O)O)=C(SCC(=N)N3CC[C@@H](OC(N)=O)C3)[C@H](C)[C@H]12 [Compound No. 16, (1R,5S,6S)-2-{2-[(3R)-3-Carbamoyloxypyrrolidin-1-yl]-2-iminoethylthio}-6-[(1R)-1-hydroxyethyl]-1-methyl-1-carbapen-2-em-3-carboxylic acid] | 0.05 µg/mL (≈ 0.121 µM) | ≤ 0.01 µg/mL | 0.1 µg/mL (≈ 0.242 µM) | 3.1 µg/mL (≈ 7.52 µM) | 0.05 µg/mL (≈ 0.121 µM) | 0.05 µg/mL (≈ 0.121 µM) | 0.1 µg/mL (≈ 0.242 µM) | 0.1 µg/mL (≈ 0.242 µM) | – | 0.8 µg/mL (≈ 1.94 µM) | – | – | – | – |
| C[C@@H](O)[C@H]1C(=O)N2C(C(=O)O)=C(SCC(=N)N3CCC(=NO)CC3)C[C@H]12 [Compound No. 27, (5R,6S)-2-[2-(4-Hydroxyiminopiperidin-1-yl)-2-iminoethylthio]-6-[(1R)-1-hydroxyethyl]-1-carbapen-2-em-3-carboxylic acid] | 0.1 µg/mL (≈ 0.261 µM) | ≤ 0.01 µg/mL | 0.05 µg/mL (≈ 0.131 µM) | 0.8 µg/mL (≈ 2.09 µM) | 0.02 µg/mL (≈ 0.0523 µM) | 0.1 µg/mL (≈ 0.261 µM) | 0.1 µg/mL (≈ 0.261 µM) | 0.1 µg/mL (≈ 0.261 µM) | – | 0.8 µg/mL (≈ 2.09 µM) | – | above 2,000 mg/kg | – | – |
| C[C@@H](O)[C@H]1C(=O)N2C(C(=O)O)=C(SCC(=N)N3CCC(=NO)CC3)[C@H](C)[C@H]12 [Compound No. 28, (1R,5S,6S)-2-[2-(4-Hydroxyiminopiperidin-1-yl)-2-iminoethylthio]-6-[(1R)-1-hydroxyethyl]-1-methyl-1-carbapen-2-em-3-carboxylic acid] | 0.02 µg/mL (≈ 0.0504 µM) | ≤ 0.01 µg/mL | 0.05 µg/mL (≈ 0.126 µM) | 1.5 µg/mL (≈ 3.78 µM) | 0.05 µg/mL (≈ 0.126 µM) | 0.05 µg/mL (≈ 0.126 µM) | 0.1 µg/mL (≈ 0.252 µM) | 0.1 µg/mL (≈ 0.252 µM) | – | 0.4 µg/mL (≈ 1.01 µM) | – | – | – | – |
| C[C@@H](O)[C@H]1C(=O)N2C(C(=O)O)=C(SCCN)C[C@H]12 [thienamycin, 2-(2-aminoethylthio)-6-(1-hydroxyethyl)carbapen-2-em-3-carboxylic acid] | – | – | – | – | – | – | – | – | – | – | – | – | poor | inactivated in vivo in mammals by dehydropeptidase I |
